According to US20140342025A1, “ARJUNOLIC ACID FOR INCREASING SEBUM PRODUCTION” (EVONIK INDUSTRIES AG, priority 2011, published 2014):

Assay: Percutaneous absorption study on a pig skin model
Format: in vitro ADME
Conditions: arjunolic acid in combination with 1,2-pentanediol in cosmetic formulation vs. formulation without 1,2-pentanediol; FIG. 2
Description: In practice, the study was performed in accordance with a current protocol, as described for example in S. Richert, A. Schrader, K. Schrader, Int. J. Cosmet. Sci. 2003, 25, 5-13.

CC1(C)CC[C@]2(C(=O)O)CC[C@]3(C)C(=CC[C@@H]4[C@@]5(C)C[C@@H](O)[C@H](O)[C@@](C)(CO)[C@@H]5CC[C@]43C)[C@@H]2C1 [arjunolic acid]
bioavailability (skin penetration) as a function of solvent: increase in bioavailability
